Key:
LNCaP cells spheroids = test: Cell migration out of 3D spheroids; assay type: cell-based, human; settings: 2 μM and 5 μM; 1 to 7 days; FIG. 3
Procedure: In vitro migration out of the spheroid was performed using a 96-well tissue culture plate (Cell Culture Microplate, 96 wells, Flat-BOTTOM, CellStar #655090). 100 μL (72 h hours old+24 h drug treatment spheroids) were placed in corresponding well of the new flat microplate, and daily observed in bright field with a Zeiss Axio Observer microscope. Each condition was made in six replicates. The migration area was measured with the tools of the AxioObserver software.
To this end, 3-days old spheroids are placed in a new flat-well microplate and daily observed in bright field.

HCC827 cells = test: Cytotoxicity assay (PrestoBlue cell viability), HCC827; assay type: cell-based; settings: Homo sapiens, 48 hours treatment
Procedure: Messa, Messa DX5, HCT116, HEK-293, PC-3, LNCaP, HCC827 and H1975 cell lines are issued from the American Type Culture Collection (ATCC).
For cytotoxicity assays, cells were seeded in 96-well microplates 24 hours before the addition of increasing concentrations of each compound in the culture medium. Cell viability was analyzed 48 hours following addition of each compound through the monitoring of mitochondrial […] activity using PrestoBlue® Cell Viability Reagent (Invitrogen; #A-13261). Paclitaxel was used as a control which is cytotoxic on various cancerous cells although not on chemoresistant MESSA DX5 lineage.

[1] = system: MDA-MB231 triple negative breast cancer cells; test: Wounding assay, MDA-MB231; assay type: cell-based; settings: from 1 μM concentration; mitomycine 2 μg/ml; 24 hours
Procedure: (§1) In addition the migratory capacity of two additional triple negative breast cancer cells lines: the metastatic MDA-MB231 and BT-549 showing high migratory capacity was analyzed in a classical wound assay.
(§2) BT-549, MDA-MB231 cell lines were issued from the American Type Culture Collection (ATCC). For wounding assays, cells were seeded in 24-well microplates (Culture Insert 21, ref 250210, Ibidi®). […] Cell spreading was then visualized during 24 hours by videomicroscopy (1 acquisition each 30 min). A representative picture of 3 is presented at 0 and 12 hours of drug treatment out. In Graphs, curves represents the empty surface (devoid of cells) between the two cell layers (delimited by using Image J software).

chicken embryos = test: Toxicity in the chick embryo model; assay type: in vivo; settings: each second day at 2 μM or 10 μM; FIG. 4B
Procedure: The number of dead embryo evaluates the toxicity after 10 days of the treatment as well as the research of abnormality on 22 checkpoints observed on surviving embryos at two concentrations of drugs (i.e. 2 μM and 10 μM). • Head: Size, Closure, Eyes, Ear, Face and Branchial are derivatives, Mobility; • Body: Size, Axis deformation, ventral and dorsal Closures, Caudal formation, Sexual area; • Limbs: Size, Axis morphology, Mobility, • Skin: Appendage formation, Attachment, Blood vessel; • Extra-Embryonic Structures: Vascularisation, Transparency, Attachment, Blood vessel Results

[2] = system: CyclinD1 and FAS in PC-3 cells; test: Protein expression by immunoblot, PC-3; assay type: cell-based, human; settings: dose and time dependent; 6 h or 24 h; FIG. 6
Procedure: In FIG. 6B and FIG. 6D, LNCaP cells were treated with dihydrotestosterone (DHT) to induce hormonal dependent FAS expression. Actin or Tubulin (Tub) serve as loading controls. One representative experiment out of three is presented.
Cells were treated by either DMSO (0.5%) or increasing doses of the selected molecules from 1 μM to 10 μM over 6 to 24 hours as indicated. Cell lysates were analyzed by immunoblotting following standard procedure using primary antibodies from Cell Signaling: anti-total P53 (#9282), anti-phosphoP53 Kit (#9919), anti-cyclinD1 (#2926), anti-FAS (#3189), anti EGFR (#4267), anti-Phospho (tyr1068) EGFR (#2234), anti Met (#4560), anti-Akt (#9272), anti Phospho(Ser473)-Akt (#9271) or anti-Myc (Santa Cruz Technology #Sc-40). Tubulin was detected using anti α-tubulin primary antibody (in-house: the polyclonal Glu-tubulin antibody (L4) is available commercially from Abcys (Paris, France)). HRP-coupled anti-rabbit (#A6154) and anti-mouse (#A4416) secondary antibodies were purchased from Sigma. HRP activity was detected through HRP chemoluminescence detection reagent (Millipore, #WBLUF0100). Apoptotic cell death induction was observed through the observation of PARP cleavage using anti-PARP primary antibodies anti-PARP (46D11) (#9532). Positive control was Epotoside at 50 μM or 100 μM, a known drug inducing cancerous cell death by apoptosis.

USP8 = settings: increasing concentrations; HEK293T lysate; FIG. 13D
Procedure: FIG. 13 D: Flag-USP8 constructs were transfected in HEK293T cells for 48 hours using standard protocols. After cell lysis, the whole cell lysate was incubated with HA-Ub-Vs at 1.5 μM during 12 hours. Then the mixture was separated on SDS-page gel and immunoblotted with anti Flag antibodies (to reveal USP8). The upper band corresponds to USP8 linked to HA-Ub-Vs while the lower band corresponds to free USP8. Immunoblot with anti-tubuline antibodies served as internal loading control.

[3] = system: BT-549 triple negative breast cancer cells; test: Wounding assay, BT-549; assay type: cell-based; settings: from 1 μM concentration; mitomycine 2 μg/ml; 24 hours
Procedure: as §1, §2

USP8^CD = target: T1, USP8^CD (Homo sapiens, UniProt P40818); test: tri-Ub^K63 chains hydrolysis by USP8^CD (western blot); assay type: biochemical; settings: FIG. 1D, at the indicated concentrations
T1 construct: the purified catalytic domain of USP8 (USP8^CD, in-house purified); made in house; host or cells: E. coli BL21 Gold
T1 sequence (P40818 777-1109 limits assumed): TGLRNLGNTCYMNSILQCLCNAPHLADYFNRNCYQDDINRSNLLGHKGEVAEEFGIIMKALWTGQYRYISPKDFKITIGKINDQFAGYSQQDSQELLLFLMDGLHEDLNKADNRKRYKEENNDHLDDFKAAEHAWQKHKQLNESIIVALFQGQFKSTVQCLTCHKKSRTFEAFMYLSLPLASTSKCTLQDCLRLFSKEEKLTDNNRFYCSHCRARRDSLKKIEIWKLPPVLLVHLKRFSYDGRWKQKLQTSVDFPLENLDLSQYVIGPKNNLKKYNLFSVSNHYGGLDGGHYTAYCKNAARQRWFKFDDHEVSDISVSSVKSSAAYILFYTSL
Procedure: (§3) The degradation of purified lysine 63-linked tree-Ubiquitin chains (triUb^K63) over a 90 minutes period of time was visualized by western blot analysis. […] Enzymatic assay was performed in a HEPES buffer (50 mM pH7.4, 150 mM NaCl, 0.5 mM EDTA, 2% glycerol, 0.2 mg/ml BSA, 5 mMDTT).

USP2^CD = target: T2, USP2^CD (Homo sapiens, UniProt O75604); test: tri-Ub^K63 chains hydrolysis by USP2^CD (western blot); assay type: biochemical; settings: FIG. 1C, at the indicated concentrations
T2 construct: The purified catalytic domain of USP2 (USP2^CD, in-house purified); His; made in house; host or cells: E. coli BL21 Gold
T2 sequence (O75604 267-599 limits assumed): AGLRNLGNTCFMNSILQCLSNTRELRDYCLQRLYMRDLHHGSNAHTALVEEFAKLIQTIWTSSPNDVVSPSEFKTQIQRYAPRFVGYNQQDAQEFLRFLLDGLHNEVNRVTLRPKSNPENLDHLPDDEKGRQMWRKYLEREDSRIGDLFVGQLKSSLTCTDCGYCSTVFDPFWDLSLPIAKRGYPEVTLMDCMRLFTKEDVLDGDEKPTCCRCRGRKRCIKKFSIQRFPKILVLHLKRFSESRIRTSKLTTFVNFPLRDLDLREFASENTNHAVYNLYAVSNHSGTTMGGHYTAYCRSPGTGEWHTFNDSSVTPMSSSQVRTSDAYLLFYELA
Procedure: as §3

| inhibition of tri-Ub^K63 chains hydrolysis by USP8^CD (USP8^CD) | inhibition of tri-Ub^K63 chains hydrolysis by USP2^CD (USP2^CD) | SMILES | prevention of cell migration out of the spheroids (LNCaP cells spheroids) | EC50 (HCC827 cells) [nM] | cell migration in wounding assay, MDA-MB231 [1] | toxicity (death, macroscopic abnormalities) in chick embryo (chicken embryos) | expression level of CyclinD1, PC-3 [2] | expression level of FAS, PC-3 [2] | HA-Ub-VS binding to USP8 in the whole cell lysate (USP8) | cell migration in wounding assay, BT-549 [3] |
| --- | --- | --- | --- | --- | --- | --- | --- | --- | --- | --- |
| – | – | CCCCS(=O)(=O)Cc1nc2c(nc1CS(=O)(=O)CCCC)C(=O)c1ccccc1C2=O [PCR6236] | strong capacity | 1800 | prevents triple negative breast cancer cell migration | No significant toxicity | strongly decreased | strongly decreased | decreased HA-Ub-VS binding to USP8 | prevents triple negative breast cancer cell migration |
| full inhibition | full inhibition | CCCCS(=O)(=O)Cc1nc2c(o1)C(=O)c1ccccc1C2=O [PCR9301] | – | – | – | – | – | – | – | – |

From patent publication US11306063B2, “Heterocyclic naphthoquinones derivatives for use in the treatment of cancers including Cushing disease” (Commissariat a l'Energie Atomique et aux Energies …, priority 2016, dated 2022)
